molecular target: CNDP2 (Homo sapiens (Human), UniProt Q96KP4); experiment: CNDP2 enzyme inhibition assay (Met-His hydrolysis, free histidine by o-phthaldialdehyde fluorescence), dose-response; type: biochemical; conditions: 50 nM purified CNDP2 (Sino Biological), 1 mM Met-His substrate, 30 minutes at 37° C.; TABLE 1
Method: To identify optimal conditions for identifying novel inhibitors of CNDP2, enzyme assays were performed with varied sources of purified enzyme, concentrations of enzyme, peptide substrates, concentrations of peptide substrates and metal cofactors. […] The reaction mixture was incubated for 30 minutes at 37° C. before it was quenched with an equal volume of 1% TCA. Free histidine was quantified after derivatization with a fluorophore (o-phthaldialdehyde from Sigma-Aldrich, excitation 340 nm, emission 460 nm). The reaction was conducted in an automation-friendly format to meet future screening throughput demands. A histidine titration standard curve was also included to enable conversion of fluorescence signal to molar concentration of histidine released by the hydrolysis reaction and to ensure the linearity of the fluorescence signal vs. free histidine.
Compounds of Formula (I) disclosed herein were screened for potency in inhibiting CNDP2 enzyme activity in a dose-response experiment. Bestatin was included with each batch of test molecules as a benchmark for assay quality control.

Chain of CNDP2 (Q96KP4 whole entry): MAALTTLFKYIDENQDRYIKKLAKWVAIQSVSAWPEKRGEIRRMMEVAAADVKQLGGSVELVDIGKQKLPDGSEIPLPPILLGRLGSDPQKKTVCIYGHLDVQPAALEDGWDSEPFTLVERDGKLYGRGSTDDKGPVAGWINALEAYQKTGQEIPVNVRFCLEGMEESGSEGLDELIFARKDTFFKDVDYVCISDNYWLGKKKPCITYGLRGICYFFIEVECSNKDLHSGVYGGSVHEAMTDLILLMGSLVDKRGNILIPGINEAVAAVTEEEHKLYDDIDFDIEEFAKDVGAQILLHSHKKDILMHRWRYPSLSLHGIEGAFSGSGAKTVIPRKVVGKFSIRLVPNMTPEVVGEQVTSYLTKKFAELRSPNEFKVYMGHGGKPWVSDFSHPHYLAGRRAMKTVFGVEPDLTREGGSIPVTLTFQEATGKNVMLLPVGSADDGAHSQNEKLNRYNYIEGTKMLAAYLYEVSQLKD

Row | SMILES | IC50 [nM]
1 | N[C@H](Cc1ccccc1)[C@H](O)C(=O)N[C@H](C(=O)O)c1cccc(C(F)(F)F)c1 [Compound 36] | < 100
2 | CC(C)C[C@H](NC(=O)[C@@H](O)[C@H](N)Cc1cccc(Br)c1)C(=O)O [Compound 41] | ≥ 1000
3 | N[C@H](Cc1ccccc1)[C@H](O)C(=O)N[C@H](C(=O)NO)c1cccc(OC(F)(F)F)c1 [Compound 52] | ≥ 1000
4 | N[C@H](Cc1ccccc1)[C@H](O)C(=O)NC(C(=O)O)C1CCNCC1 (stereo partly drawn) [Compound 29] | ≥ 1000
5 | N[C@H](Cc1ccccc1)[C@H](O)C(=O)N[C@@H](Cc1ccc(O)cc1)C(=O)O [Compound 19, 2-[[(2S,3R)-3-amino-2-hydroxy-4-phenyl-butanoyl]amino]-3-(4-hydroxyphenyl)propanoic acid] | ≥ 1000
6 | NC(=O)C(NC(=O)[C@@H](O)[C@H](N)Cc1ccccc1)c1cccc(C(F)(F)F)c1 (stereo partly drawn) [Compound 42] | ≥ 1000
7 | N[C@H](Cc1ccccc1)[C@H](O)C(=O)NC(CC1CCCC1)C(=O)O (stereo partly drawn) [Compound 17, 2-[[(2S,3R)-3-amino-2-hydroxy-4-phenyl-butanoyl]amino]-3-cyclopentyl-propanoic acid] | < 100
8 | N[C@H](Cc1ccccc1)[C@H](O)C(=O)NC1(C(=O)O)CCCC1 [Compound 15, 1-[[(2S,3R)-3-amino-2-hydroxy-4-phenyl-butanoyl]amino]cyclopentane carboxylic acid] | ≥ 1000
9 | COc1cccc(C(NC(=O)[C@@H](O)[C@H](N)Cc2ccccc2)C(=O)O)c1 (stereo partly drawn) [Compound 32] | ≥ 1000
10 | N[C@H](Cc1ccccc1)[C@H](O)C(=O)N[C@@H](C(=O)O)c1cccc(C(F)(F)F)c1 [Compound 35] | ≥ 1000
11 | N[C@H](Cc1ccccc1OC(F)(F)F)[C@H](O)C(=O)N[C@H](C(=O)O)c1cccc(OC(F)(F)F)c1 [Compound 61] | 100 to 1000
12 | N[C@H](Cc1ccccc1)[C@H](O)C(=O)N[C@@H](Cc1cccc(Br)c1)C(=O)O [Compound 33] | ≥ 1000

same assay, conditions: 50 nM purified CNDP2 (Sino Biological), 1 mM Met-His substrate, 30 minutes at 37° C.; TABLE 2

Row | SMILES | IC50 [nM]
13 | N[C@H](Cc1ccccc1)[C@H](O)C(=O)N[C@H](C(=O)O)c1cc(F)cc(C(F)(F)F)c1 [Compound 93, (S)-2-((2S,3R)-3-amino-2-hydroxy-4-phenylbutanamido)-2-(5-fluoro-3-(trifluoromethyl)phenyl)acetic acid] | ≥ 1000
14 | C[C@@](NC(=O)[C@@H](O)[C@H](N)Cc1ccccc1)(C(=O)O)c1cccc(OC(F)(F)F)c1 [Compound 88, (S)-2-((2S,3R)-3-amino-2-hydroxy-4-phenylbutanamido)-2-(3-(trifluoromethoxy)phenyl)propanoic acid] | ≥ 1000
15 | N[C@H](Cc1ccccc1)[C@H](O)C(=O)N[C@@H](CN1CCCC(F)(F)C1)C(=O)O [Compound 82] | ≥ 1000
16 | N[C@H](Cc1ccccc1)[C@H](O)C(=O)N[C@@H](CN1CCC(C(F)(F)F)CC1)C(=O)O [Compound 73] | ≥ 1000
17 | N[C@H](Cc1ccc(C(F)(F)F)cc1)[C@H](O)C(=O)N[C@@H](C(=O)O)c1cccc(OC(F)(F)F)c1 [Compound 132, (R)-2-((2S,3R)-3-amino-2-hydroxy-4-(4-(trifluoromethyl)phenyl)butanamido)-2-(3-(trifluoromethoxy)phenyl)acetic acid] | 100 to 1000
18 | N[C@H](Cc1ccccc1)[C@H](O)C(=O)N[C@@H](Cc1ccc(F)c(OC(F)(F)F)c1)C(=O)O [Compound 99] | ≥ 1000
19 | N[C@H](Cc1ccccc1)[C@H](O)C(=O)N[C@@H](C(=O)O)c1cccc(C(F)(F)F)c1Cl [Compound 86, (R)-2-((2S,3R)-3-amino-2-hydroxy-4-phenylbutanamido)-2-(2-chloro-3-(trifluoromethyl)phenyl)acetic acid] | ≥ 1000
20 | N[C@H](Cc1ccc(C(F)(F)F)cc1)[C@H](O)C(=O)N[C@H](C(=O)O)c1cccc(OC(F)(F)F)c1 [Compound 133] | ≥ 1000
21 | N[C@H](Cc1ccccc1)[C@H](O)C(=O)N[C@H](c1cccc(OC(F)(F)F)c1)c1n[nH]c(=O)o1 [Compound 74] | ≥ 1000

Reference: patent publication US20250120927A1, “CNDP2 MODULATORS AND METHODS FOR THEIR USE” (Metabolon Inc., priority 2023, published 2025)
